Test results: the supplement of paper PMC5908809

Legend:
[1] = test system: normal NK cells expanded with K562-aAPC; test: percent inhibition of viability; higher = more inhibition; conditions: 72 h, IL-2 2.5 ng/mL
Protocol: (§1)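 Drug sensitivity and resistance testing on K562-aAPC-expanded normal NK cells: 5 concentrations (10-fold steps over a 10,000-fold range), 72 h at 37 °C, viability by CellTiter-Glo normalised to DMSO and benzethonium chloride controls; DSS from the fitted curve.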

DERL-7 (IL-2 2.5 ng/mL) [2] = test: as above; conditions: 72 h
IMC-1 (IL-2 20 ng/mL) [3] = test: as above; conditions: 72 h
KAI3 (IL-2 2.5 ng/mL) [4] = test: as above; conditions: 72 h
KHYG-1 (IL-2 2.5 ng/mL) [5] = test: as above; conditions: 72 h
NK-92 (IL-2 2.5 ng/mL) [6] = test: as above; conditions: 72 h
NK-YS (IL-2 2.5 ng/mL) [7] = test: as above; conditions: 72 h
NKL (IL-2 2.5 ng/mL) [8] = test: as above; conditions: 72 h
SNK-6 (IL-2 2.5 ng/mL) [9] = test: as above; conditions: 72 h
YT (IL-2 2.5 ng/mL) [10] = test: as above; conditions: 72 h
[11] = test system: normal primary NK cells, pool 1 (3 donors) (IL-2 2.5 ng/mL); test: as above; conditions: 72 h
[12] = test system: normal primary NK cells, pool 1 (3 donors), resting (IL-2 0 ng/mL); test: as above; conditions: 72 h
[13] = test system: normal primary NK cells, pool 2 (3 donors) (IL-2 2.5 ng/mL); test: as above; conditions: 72 h
[14] = test system: normal primary NK cells, pool 3 (3 donors) (IL-2 2.5 ng/mL); test: as above; conditions: 72 h
[15] = test system: normal NK cells expanded with K562-aAPC; test: drug sensitivity score (DSS) (DSS units); higher = more sensitive; extreme values may be limits of the assay; conditions: 72 h; IL-2 2.5 ng/mL
Protocol: as §1

DERL-7 (IL-2 2.5 ng/mL) [16] = test: as above; conditions: 72 h
IMC-1 (IL-2 20 ng/mL) [17] = test: as above; conditions: 72 h
KAI3 (IL-2 2.5 ng/mL) [18] = test: as above; conditions: 72 h
KHYG-1 (IL-2 2.5 ng/mL) [19] = test: as above; conditions: 72 h
NK-92 (IL-2 2.5 ng/mL) [20] = test: as above; conditions: 72 h
NK-YS (IL-2 2.5 ng/mL) [21] = test: as above; conditions: 72 h
NKL (IL-2 2.5 ng/mL) [22] = test: as above; conditions: 72 h
SNK-6 (IL-2 2.5 ng/mL) [23] = test: as above; conditions: 72 h
YT (IL-2 2.5 ng/mL) [24] = test: as above; conditions: 72 h
[25] = test system: normal primary NK cells, pool 1 (3 donors) (IL-2 2.5 ng/mL); test: as above; conditions: 72 h
[26] = test system: normal primary NK cells, pool 1 (3 donors), resting (IL-2 0 ng/mL); test: as above; conditions: 72 h
[27] = test system: normal primary NK cells, pool 2 (3 donors) (IL-2 2.5 ng/mL); test: as above; conditions: 72 h
[28] = test system: normal primary NK cells, pool 3 (3 donors) (IL-2 2.5 ng/mL); test: as above; conditions: 72 h

CNC(=O)c1nn(C)c2c1C(C)(C)Cc1cnc(Nc3ccc(N4CCN(C)CC4)cc3)nc1-2 [Milciclib] (max concentration tested 10000 nM)
percent inhibition of viability ([1]; 1 nM): 4.02% | percent inhibition of viability ([1]; 10 nM): -0.67% | percent inhibition of viability ([1]; 100 nM): 11% | percent inhibition of viability ([1]; 1000 nM): 58% | percent inhibition of viability ([1]; 10000 nM): 101% | percent inhibition of viability (DERL-7 (IL-2 2.5 ng/mL) [2]; 1 nM): 3.27% | percent inhibition of viability (DERL-7 (IL-2 2.5 ng/mL) [2]; 10 nM): -10.3% | percent inhibition of viability (DERL-7 (IL-2 2.5 ng/mL) [2]; 100 nM): 4.85% | percent inhibition of viability (DERL-7 (IL-2 2.5 ng/mL) [2]; 1000 nM): 67.1% | percent inhibition of viability (DERL-7 (IL-2 2.5 ng/mL) [2]; 10000 nM): 98.4% | percent inhibition of viability (IMC-1 (IL-2 20 ng/mL) [3]; 1 nM): -3.68% | percent inhibition of viability (IMC-1 (IL-2 20 ng/mL) [3]; 10 nM): -8.88% | percent inhibition of viability (IMC-1 (IL-2 20 ng/mL) [3]; 100 nM): -4.95% | percent inhibition of viability (IMC-1 (IL-2 20 ng/mL) [3]; 1000 nM): -5.54% | percent inhibition of viability (IMC-1 (IL-2 20 ng/mL) [3]; 10000 nM): 101% | percent inhibition of viability (KAI3 (IL-2 2.5 ng/mL) [4]; 1 nM): 2.07% | percent inhibition of viability (KAI3 (IL-2 2.5 ng/mL) [4]; 10 nM): -4.15% | percent inhibition of viability (KAI3 (IL-2 2.5 ng/mL) [4]; 100 nM): 13.3% | percent inhibition of viability (KAI3 (IL-2 2.5 ng/mL) [4]; 1000 nM): 40% | percent inhibition of viability (KAI3 (IL-2 2.5 ng/mL) [4]; 10000 nM): 103% | percent inhibition of viability (KHYG-1 (IL-2 2.5 ng/mL) [5]; 1 nM): 0.72% | percent inhibition of viability (KHYG-1 (IL-2 2.5 ng/mL) [5]; 10 nM): 0.82% | percent inhibition of viability (KHYG-1 (IL-2 2.5 ng/mL) [5]; 100 nM): 16.2% | percent inhibition of viability (KHYG-1 (IL-2 2.5 ng/mL) [5]; 1000 nM): 88.3% | percent inhibition of viability (KHYG-1 (IL-2 2.5 ng/mL) [5]; 10000 nM): 108% | percent inhibition of viability (NK-92 (IL-2 2.5 ng/mL) [6]; 1 nM): -4.06% | percent inhibition of viability (NK-92 (IL-2 2.5 ng/mL) [6]; 10 nM): -2.4% | percent inhibition of viability (NK-92 (IL-2 2.5 ng/mL) [6]; 100 nM): 1.56% | percent inhibition of viability (NK-92 (IL-2 2.5 ng/mL) [6]; 1000 nM): 39% | percent inhibition of viability (NK-92 (IL-2 2.5 ng/mL) [6]; 10000 nM): 101% | percent inhibition of viability (NK-YS (IL-2 2.5 ng/mL) [7]; 1 nM): -3.1% | percent inhibition of viability (NK-YS (IL-2 2.5 ng/mL) [7]; 10 nM): -3.45% | percent inhibition of viability (NK-YS (IL-2 2.5 ng/mL) [7]; 100 nM): 7.23% | percent inhibition of viability (NK-YS (IL-2 2.5 ng/mL) [7]; 1000 nM): 40.2% | percent inhibition of viability (NK-YS (IL-2 2.5 ng/mL) [7]; 10000 nM): 103% | percent inhibition of viability (NKL (IL-2 2.5 ng/mL) [8]; 1 nM): -13.6% | percent inhibition of viability (NKL (IL-2 2.5 ng/mL) [8]; 10 nM): -18.8% | percent inhibition of viability (NKL (IL-2 2.5 ng/mL) [8]; 100 nM): -12.2% | percent inhibition of viability (NKL (IL-2 2.5 ng/mL) [8]; 1000 nM): 37.9% | percent inhibition of viability (NKL (IL-2 2.5 ng/mL) [8]; 10000 nM): 106% | percent inhibition of viability (SNK-6 (IL-2 2.5 ng/mL) [9]; 1 nM): 2.94% | percent inhibition of viability (SNK-6 (IL-2 2.5 ng/mL) [9]; 10 nM): -5.15% | percent inhibition of viability (SNK-6 (IL-2 2.5 ng/mL) [9]; 100 nM): -12.8% | percent inhibition of viability (SNK-6 (IL-2 2.5 ng/mL) [9]; 1000 nM): 17.8% | percent inhibition of viability (SNK-6 (IL-2 2.5 ng/mL) [9]; 10000 nM): 93.1% | percent inhibition of viability (YT (IL-2 2.5 ng/mL) [10]; 1 nM): 1.63% | percent inhibition of viability (YT (IL-2 2.5 ng/mL) [10]; 10 nM): 0.13% | percent inhibition of viability (YT (IL-2 2.5 ng/mL) [10]; 100 nM): -0.36% | percent inhibition of viability (YT (IL-2 2.5 ng/mL) [10]; 1000 nM): 21% | percent inhibition of viability (YT (IL-2 2.5 ng/mL) [10]; 10000 nM): 106% | percent inhibition of viability ([11]; 1 nM): -4.67% | percent inhibition of viability ([11]; 10 nM): -0.64% | percent inhibition of viability ([11]; 100 nM): -2.17% | percent inhibition of viability ([11]; 1000 nM): 41.2% | percent inhibition of viability ([11]; 10000 nM): 94.1% | percent inhibition of viability ([12]; 1 nM): -2.66% | percent inhibition of viability ([12]; 10 nM): 2.94% | percent inhibition of viability ([12]; 100 nM): 14.9% | percent inhibition of viability ([12]; 1000 nM): 61.7% | percent inhibition of viability ([12]; 10000 nM): 88.7% | percent inhibition of viability ([13]; 1 nM): -6.1% | percent inhibition of viability ([13]; 10 nM): -7.12% | percent inhibition of viability ([13]; 100 nM): 7.61% | percent inhibition of viability ([13]; 1000 nM): 55.9% | percent inhibition of viability ([13]; 10000 nM): 96.4% | percent inhibition of viability ([14]; 1 nM): -13.5% | percent inhibition of viability ([14]; 10 nM): -12.3% | percent inhibition of viability ([14]; 100 nM): -7.15% | percent inhibition of viability ([14]; 1000 nM): 27.3% | percent inhibition of viability ([14]; 10000 nM): 98.8% | drug sensitivity score [15]: 12.8 | drug sensitivity score (DERL-7 (IL-2 2.5 ng/mL) [16]): 13.6 | drug sensitivity score (IMC-1 (IL-2 20 ng/mL) [17]): 5.2 | drug sensitivity score (KAI3 (IL-2 2.5 ng/mL) [18]): 10.3 | drug sensitivity score (KHYG-1 (IL-2 2.5 ng/mL) [19]): 18.2 | drug sensitivity score (NK-92 (IL-2 2.5 ng/mL) [20]): 10.8 | drug sensitivity score (NK-YS (IL-2 2.5 ng/mL) [21]): 10.9 | drug sensitivity score (NKL (IL-2 2.5 ng/mL) [22]): 10.7 | drug sensitivity score (SNK-6 (IL-2 2.5 ng/mL) [23]): 8.04 | drug sensitivity score (YT (IL-2 2.5 ng/mL) [24]): 8.93 | drug sensitivity score [25]: 10.6 | drug sensitivity score [26]: 13.5 | drug sensitivity score [27]: 12.2 | drug sensitivity score [28]: 9.53
